Test results reported in PubChem BioAssay AID256 (DTP/NCI, 2004).
Values joined by “and” are separate entries in the source; they are usually repeats but may differ in a detail not shown here. Equal values may be shown once. Inconclusive results and toxic doses are left out. The calls were made as follows: active = survival T/C of 150% or more; inactive = T/C below 125% in these data.

Tested on: CD2F1 mice, L1210 leukemia ip, survival T/C
Test: NCI In Vivo Anticancer Drug Screen. Data for tumor model L1210 Leukemia (intraperitoneal) in CD2F1 (CDF1) mice
Settings: endpoint: mean survival time, higher = longer survival
Outline: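 Vehicle-treated tumor-bearing mice served as controls (C) for compound-treated mice (T). Reported figure is T divided by C.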

[1] = dose: 100.0 mg/kg/injection, schedule: Q04DX003 (ip), vehicle: saline with Tween-80
[2] = dose: 100.0 mg/kg/injection, schedule: Q01DX009 (ip), vehicle: saline with Tween-80
[3] = dose: 200.0 mg/kg/injection, schedule: Q01DX009 (ip), vehicle: saline with Tween-80
[4] = dose: 400.0 mg/kg/injection, schedule: Q01DX009 (ip), vehicle: saline with Tween-80
[5] = dose: 50.0 mg/kg/injection, schedule: Q01DX009 (ip), vehicle: saline with Tween-80
[6] = dose: 200.0 mg/kg/injection, schedule: Q04DX003 (ip), vehicle: saline with Tween-80
[7] = dose: 400.0 mg/kg/injection, schedule: Q04DX003 (ip), vehicle: saline with Tween-80
[8] = dose: 12.5 mg/kg/injection, schedule: Q01DX009 (ip), vehicle: Klucel (hydroxypropylcellulose) (HPC)
[9] = dose: 25.0 mg/kg/injection, schedule: Q01DX009 (ip), vehicle: Klucel (hydroxypropylcellulose) (HPC)
[10] = dose: 50.0 mg/kg/injection, schedule: Q01DX009 (ip), vehicle: Klucel (hydroxypropylcellulose) (HPC)
[11] = dose: 100.0 mg/kg/injection, schedule: Q01DX009 (ip), vehicle: Klucel (hydroxypropylcellulose) (HPC)
[12] = dose: 200.0 mg/kg/injection, schedule: Q01DX009 (ip), vehicle: Klucel (hydroxypropylcellulose) (HPC)
[13] = dose: 100.0 mg/kg/injection, schedule: Q01DX001 (ip), vehicle: saline
[14] = dose: 200.0 mg/kg/injection, schedule: Q01DX001 (ip), vehicle: saline

Measured: T/C

Nc1nc2c(nc(NCc3ccccc3)n2C2OC(CO)C(O)C2O)c(=O)[nH]1 (stereo not given)
inactive: dose: 6.25 mg/kg/injection, schedule: Q01DX005 (ip), vehicle: distilled water + Tween-80 97 % of control | dose: 12.5 mg/kg/injection, schedule: Q01DX005 (ip), vehicle: distilled water + Tween-80 95 % of control | dose: 25.0 mg/kg/injection, schedule: Q01DX005 (ip), vehicle: distilled water + Tween-80 95 % of control | dose: 50.0 mg/kg/injection, schedule: Q01DX005 (ip), vehicle: distilled water + Tween-80 90 % of control | dose: 100.0 mg/kg/injection, schedule: Q01DX005 (ip), vehicle: distilled water + Tween-80 90 % of control

CC(C)(C)OC(=O)CCC(NC(=O)OCc1ccccc1)C(=O)O (stereo not given)
inactive: dose: 50.0 mg/kg/injection, schedule: Q04DX003 (ip), vehicle: saline with Tween-80 93 % of control | dose: 100.0 mg/kg/injection, schedule: Q01DX001 (ip), vehicle: saline sonified 103 % of control | [1] 94 % of control | dose: 200.0 mg/kg/injection, schedule: Q01DX001 (ip), vehicle: saline sonified 109 % of control

ClCC[Se](Cl)(Cl)c1ccccc1
inactive: dose: 0.78 mg/kg/injection, schedule: Q01DX009 (ip), vehicle: saline 96 % of control and 110 % of control | dose: 1.56 mg/kg/injection, schedule: Q01DX009 (ip), vehicle: saline 108 % of control | dose: 3.12 mg/kg/injection, schedule: Q01DX009 (ip), vehicle: saline 108 % of control and 112 % of control | dose: 6.25 mg/kg/injection, schedule: Q01DX009 (ip), vehicle: saline 115 % of control and 122 % of control

O=C1CC[C@H](NC(=O)OCc2ccccc2)C(=O)O1
inactive: [2] 88 % of control | [3] 90 % of control | [4] 88 % of control

CC(=NCC(=O)O)c1ccccc1
inactive: dose: 25.0 mg/kg/injection, schedule: Q04DX003 (ip), vehicle: saline 93 % of control | dose: 50.0 mg/kg/injection, schedule: Q04DX003 (ip), vehicle: saline 100 % of control | dose: 100.0 mg/kg/injection, schedule: Q04DX003 (ip), vehicle: saline 100 % of control

CC1CCCN(CCSSCCN2CCCC(C)C2)C1 (stereo not given)
inactive: dose: 12.5 mg/kg/injection, schedule: Q01DX009 (ip), vehicle: saline with Tween-80 104 % of control | dose: 12.5 mg/kg/injection, schedule: Q04DX003 (ip), vehicle: saline sonified 97 % of control | dose: 25.0 mg/kg/injection, schedule: Q01DX009 (ip), vehicle: saline with Tween-80 96 % of control | dose: 25.0 mg/kg/injection, schedule: Q04DX003 (ip), vehicle: saline sonified 98 % of control | [5] 95 % of control | dose: 50.0 mg/kg/injection, schedule: Q04DX003 (ip), vehicle: saline sonified 103 % of control

COc1cc(OC)c(NC(=O)Nc2ccccc2C(N)=O)cc1Cl
inactive: [5] 111 % of control | [2] 96 % of control | [3] 100 % of control

CN(C)c1ccc(N=Nc2ccc(Cl)c(Cl)c2)cc1
inactive: [1] 98 % of control | [6] 95 % of control | [7] 96 % of control

Nc1cc2nc3ccccc3sc-2cc1=O
inactive: [5] 102 % of control | [2] 102 % of control | [3] 102 % of control | [4] 89 % of control

O=Cc1ccccc1O
inactive: dose: 100.0 mg/kg/injection, schedule: Q04DX002 (ip), vehicle: saline 93 % of control

Nc1c(Cl)ncnc1NNC(=O)OCc1ccccc1
inactive: dose: 100.0 mg/kg/injection, schedule: Q01DX001 (ip), vehicle: carboxymethylcellulose (CMC) 104 % of control | dose: 200.0 mg/kg/injection, schedule: Q01DX001 (ip), vehicle: carboxymethylcellulose (CMC) 98 % of control | dose: 400.0 mg/kg/injection, schedule: Q01DX001 (ip), vehicle: carboxymethylcellulose (CMC) 103 % of control

CC12CC(C(=O)O)C3(O)CC(C)(C1)CC(C)(C2)C3 (stereo not given) (tested in a mixture with another compound)
inactive: [8] 95 % of control and 107 % of control | [9] 101 % of control and 109 % of control | [10] 87 % of control and 107 % of control | [11] 98 % of control and 110 % of control | [12] 101 % of control and 104 % of control | dose: 400.0 mg/kg/injection, schedule: Q01DX009 (ip), vehicle: Klucel (hydroxypropylcellulose) (HPC) 98 % of control

CCC(C)(O)C(C)=O (stereo not given)
inactive: [8] 98 % of control | [9] 92 % of control | [10] 98 % of control | [11] 98 % of control | [12] 105 % of control

CCOc1ccc([NH-])c([NH-])c1.[Cl][Pt+2][Cl]
inactive: dose: 2.5 mg/kg/injection, schedule: Q01DX009 (ip), vehicle: distilled water + Tween-80 100 % of control | dose: 5.0 mg/kg/injection, schedule: Q01DX009 (ip), vehicle: distilled water + Tween-80 107 % of control | dose: 10.0 mg/kg/injection, schedule: Q01DX009 (ip), vehicle: distilled water + Tween-80 91 % of control

COc1ccc(CC(=O)O)cc1OC (tested in a mixture with another compound)
inactive: [2] 96 % of control | dose: 100.0 mg/kg/injection, schedule: Q04DX003 (ip), vehicle: saline sonified 101 % of control | [3] 98 % of control | dose: 200.0 mg/kg/injection, schedule: Q04DX003 (ip), vehicle: saline sonified 101 % of control | [4] 102 % of control | dose: 400.0 mg/kg/injection, schedule: Q04DX003 (ip), vehicle: saline sonified 96 % of control

CCC(CCc1ccc(OC)c(OC)c1)C(=O)O (stereo not given)
inactive: dose: 100.0 mg/kg/injection, schedule: Q04DX002 (ip), vehicle: saline with Tween-80 109 % of control | dose: 200.0 mg/kg/injection, schedule: Q04DX002 (ip), vehicle: saline with Tween-80 102 % of control | dose: 400.0 mg/kg/injection, schedule: Q04DX002 (ip), vehicle: saline with Tween-80 98 % of control

O=C(O)c1cccc(S(=O)(=O)N(CCO)CCO)c1
inactive: [2] 94 % of control | [1] 98 % of control | [3] 94 % of control | [6] 94 % of control | [7] 94 % of control

O=C1c2ccccc2C(=O)c2cc(N3C(=O)C=CC3=O)ccc21
inactive: [13] 97 % of control | [14] 96 % of control

CC(C)(CO)N=Cc1ccccc1F
inactive: dose: 75.0 mg/kg/injection, schedule: Q01DX001 (ip), vehicle: other 97 % of control | dose: 150.0 mg/kg/injection, schedule: Q01DX001 (ip), vehicle: other 96 % of control | dose: 300.0 mg/kg/injection, schedule: Q01DX001 (ip), vehicle: other 93 % of control

C=C(CC(=O)OC)C(=O)O
inactive: dose: 12.5 mg/kg/injection, schedule: Q01DX009 (ip), vehicle: saline 98 % of control | dose: 25.0 mg/kg/injection, schedule: Q01DX009 (ip), vehicle: saline 98 % of control | dose: 50.0 mg/kg/injection, schedule: Q01DX009 (ip), vehicle: saline 107 % of control | [1] 95 % of control | [6] 98 % of control | [7] 97 % of control

OCC1OC(n2ncc3c(Nc4ccccc4)ncnc32)C(O)C1O (stereo not given)
inactive: dose: 6.25 mg/kg/injection, schedule: Q01DX005 (ip), vehicle: other 97 % of control | dose: 12.5 mg/kg/injection, schedule: Q01DX005 (ip), vehicle: other 91 % of control | dose: 25.0 mg/kg/injection, schedule: Q01DX005 (ip), vehicle: other 100 % of control | dose: 50.0 mg/kg/injection, schedule: Q01DX005 (ip), vehicle: other 96 % of control | dose: 100.0 mg/kg/injection, schedule: Q01DX005 (ip), vehicle: other 92 % of control | dose: 200.0 mg/kg/injection, schedule: Q01DX005 (ip), vehicle: other 96 % of control | dose: 400.0 mg/kg/injection, schedule: Q01DX005 (ip), vehicle: other 96 % of control

CC(=O)OCCC/C(=C/c1c[nH]c2ccccc12)[N+](=O)[O-]
inactive: [13] 97 % of control | [14] 102 % of control | dose: 400.0 mg/kg/injection, schedule: Q01DX001 (ip), vehicle: saline 109 % of control

O=C1NC(=O)C2CC=CCC12 (stereo not given)
inactive: [2] 96 % of control | [3] 102 % of control | [4] 102 % of control

COC1=CCC2=C(C1)C1(C)CCCC(C)(CO)C1CC2 (stereo not given)
inactive: [1] 94 % of control | [6] 92 % of control | [7] 97 % of control

Cc1oc(N)c(C(N)=O)c1C
inactive: dose: 100.0 mg/kg/injection, schedule: Q01DX009 (ip), vehicle: saline sonified 103 % of control | [1] 100 % of control | dose: 200.0 mg/kg/injection, schedule: Q01DX009 (ip), vehicle: saline sonified 93 % of control | [6] 100 % of control | dose: 400.0 mg/kg/injection, schedule: Q01DX009 (ip), vehicle: saline sonified 92 % of control | [7] 94 % of control
